In patent US20050042266A1, “Cyanoacrylate compositions containing anti-microbial agent” (priority 2003, published 2005):

How the values were obtained:
[1] = Compatibility of triclosan/2-octyl cyanoacrylate composition with sterilization (visual observation); format: physicochemical
Procedure: A 2-octyl cyanoacrylate monomer composition is prepared as in Example 1 by adding 1 wt % triclosan to 2 mL of 2-octyl cyanoacrylate monomer. The mixture is sealed in a glass vial or plastic vial and stirred.
After sitting for about twenty-four hours, the mixture contained in the plastic vial is sterilized using electron beam sterilization to a Sterility Assurance Level (SAL) of 10^−6. After sitting for about twenty-four hours, the mixture contained in the glass vial is sterilized using dry heat sterilization to a Sterility Assurance Level (SAL) of 10^−6. The characteristics of the sterilized compositions are observed at about one minute after sterilization and later at least twenty-four hours after sterilization.

[2] = Solubility and stability of 1 wt % triclosan in 2-octyl cyanoacrylate monomer (visual observation); format: physicochemical
Procedure: A 2-octyl cyanoacrylate monomer composition is prepared by adding 1 wt % triclosan to 2 mL of 2-octyl cyanoacrylate monomer. The mixture is sealed in a glass vial or plastic vial and stirred. The characteristics of the composition are observed at about one minute after preparation and later at least twenty-four hours after preparation.

**Q.** For `Oc1cc(Cl)ccc1Oc1ccc(Cl)cc1Cl` [triclosan, 2,4,4′-trichloro-2 hydroxy di-phenyl ether], which “compatibility with dry heat sterilization” value ([1]; 1 wt % in 2-octyl cyanoacrylate, glass vial, SAL 10^-6, solution remains clear) is on record?
**A.** compatible

**Q.** What about the “compatibility with electron beam sterilization” value ([1]; 1 wt % in 2-octyl cyanoacrylate, plastic vial, SAL 10^-6, solution remains clear) of the same molecule?
**A.** compatible with electron beam sterilization

**Q.** What about the “premature polymerization during or after sterilization” value ([1]; about one minute and at least twenty-four hours after sterilization) of the same molecule?
**A.** does not cause premature polymerization during or after sterilization

**Q.** And the “premature polymerization (stability of monomer composition)” value ([2]; 1 wt % in 2-octyl cyanoacrylate, about one minute and at least twenty-four hours after preparation)?
**A.** does not cause premature polymerization

**Q.** And the “solubility in the monomer” value ([2]; 1 wt % in 2 mL 2-octyl cyanoacrylate, observed about one minute and at least twenty-four hours after preparation, solution remains clear)?
**A.** soluble in the monomer
